# From patent publication US11096952B2, “Chemicals and methods to prevent and treat TGF-beta mediated activation of fibroblasts to reduce and treat cancer and fibrosis” (Board of Supervisors of Louisiana State University and …, priority 2016, dated 2021)
# Tests used:
# [1] = tested on: TGF-β-induced fibronectin expression; assay: Western blot of TGF-β-induced fibronectin expression in HPS-19 fibroblasts; assay type: cell-based, human; conditions: HPS-19, 5 ng/ml TGF-β, digoxin 30, 60, 120, 240 nM, 24 hours
# Source text: Representative blots are shown with two exposures of fibronectin to account for strong signal intensity. n=3.
# SMAD promoter activity = assay: SMAD luciferase reporter in WPMY-1 cells; assay type: cell-based, human; conditions: WPMY-1, digoxin 60 or 120 nM, 5 ng/ml TGF-β, 24 hours
# Procedure: (§1) A) WPMY-1 human fibroblast cells transfected with SMAD (left) or EGR1 (right) luciferase reporter were treated with or without 5 ng/ml TGF-β in the presence or absence of Digoxin (60 or 120 nM) for 24 hours. Relative luciferase activity is shown. *P<0.05, **P<0.01, ***P<0.001 are significant differences compared to values set to 1 (n=3, Values are ±SEM). B) J2 mouse fibroblast cells were treated with or without 5 ng/ml TGF-β in the presence or absence of increasing concentrations (30, 60, 120, or 240 nM) of digoxin for 24 hours. Representative blot is shown with two exposures of fibronectin to account for strong signal intensity (n=3).
# (§2) Finally, J2 mouse fibroblast cells were treated with or without 5 ng/ml TGF-β in the presence or absence of increasing concentrations (30, 60, 120, or 240 nM) of digoxin for 24 hours.
# [2] = tested on: transcriptional upregulation of activated fibroblasts markers by TGF-β or IL-8; conditions: MRC-5, 10 ng/mL TGF-β or 20 ng/ml IL-8, 24 hours; digoxin 150 nM, pyrvinium 300 nM
# Procedure: Expression of the indicated genes was analyzed by real-time qPCR. TGFβ treated samples were set at 1 and other conditions were normalized accordingly. FN1: fibronectin, YAPv4: yes-activated protein, TNC: tenascin C, Col1A1: collagen 1a1, WWTR1v2: WW domain-containing transcription regulator protein 1 (TAZ), and SNAI1: Snail1. Representative data from at least two independent experiments are provided.
# [3] = tested on: TGF-β-induced fibronectin expression; assay: Western blot of TGF-β-induced fibronectin in J2 mouse fibroblast cells; assay type: cell-based; conditions: J2 (3T3-J2) mouse fibroblasts, digoxin 30-240 nM, 5 ng/ml TGF-β, 24 hours
# Procedure: as §1, §2
# The inventors used 3T3-J2 murine fibroblasts, which are highly resistant to cardiac glycosides compared to theft human counterpart.
# [4] = tested on: activated fibroblast phenotype; conditions: MRC-5 pre-activated with 10 ng/mL TGF-β 24 hours, then 24 hours treatment
# Procedure: (§3) FIGS. 13A-13C: MRC-5 lung fibroblast cells were serum-starved 24 hours then treated with or without 10 ng/mL TGF-β for 24 hours (T-24 hr). […] FN: fibronectin, YAP: yes-activated protein, TAZ: transcriptional coactivator with PDZ-binding motif, and SMA(ACTA2): smooth muscle actin. Representative western blot is shown (n=2). […] Cells were fixed in −20C methanol for 15 minutes and immunolabeled for fibronectin. Cellomics arrayscan imaging was performed and staining intensity was quantified and analyzed for fibronectin expression on a per cell basis.
# (§4) Turning now to FIGS. 13A-13E, in a clinical setting, it would be advantageous for the efficacy of the therapeutics that the activated fibroblasts be reversed to a quiescent state upon treatment. […] To test the combinations, the inventors obtained quantitative analysis of fibronectin staining in fibroblasts upon treatment with TGF-β in the presence or absence of drug combinations.
# [5] = tested on: TGF-β-induced fibronectin; conditions: MRC-5, 10 ng/mL TGF-β, 24 hours, low concentrations alone or in combination
# Procedure: as §3, §4
# [6] = tested on: activated fibroblast phenotype (fibronectin, YAP, TAZ, smooth muscle actin); assay: Western blot of activated fibroblast markers (FN, YAP, TAZ, SMA) in MRC-5 lung fibroblasts induced by growth factors; assay type: cell-based, human
# Procedure: FIG. 10C: MRC-5 lung fibroblast cells were serum-starved 24 hours then treated with 10 ng/mL TGF-β in serum-free media for 24 hours with or without verteporfin at the indicated concentration. FN: fibronectin, YAP: yes-activated protein, TAZ: transcriptional coactivator with PDZ-binding motif, and SMA(ACTA2): smooth muscle actin. Representative western blot is shown (n=3).
# FIG. […] T.F.8: combination TGF, FGF, IL8. […] FN: fibronectin, YAP: yes-activated protein, TAZ: transcriptional coactivator with PDZ-binding motif, and SMA(ACTA2): smooth muscle actin. Representative western blot is shown (n=2).
# MRC-5 fibroblasts = assay: Collagen/Matrigel contraction of MRC-5 fibroblasts; conditions: MRC-5 in collagen/Matrigel, 120 nM digoxin, 5 ng/ml TGF-β, 4 days
# Procedure: WPMY-1 (A) and MRC-5 (B) fibroblasts were treated with or without 120 nM digoxin±5 ng/ml TGF-β. […] WPMY-1 (C) and MRC-5 (D) fibroblasts embedded in collagen/Matrigel were treated with or without 120 nM digoxin±5 ng/ml TGF-β for 4 days post seeding. Data are shown as percent contracted area from initial 100% well confluence. *P<0.05 and **P<0.01 indicate significant differences (n=3, Values are ±SEM).
# [7] = tested on: TGF-β-induced CAF differentiation markers; assay: Real-Time PCR of CAF markers in MRC-5 fibroblasts; assay type: cell-based, human; conditions: MRC-5, 120 nM digoxin, 5 ng/ml TGF-β, 24 h
# Procedure: In order to determine if digoxin prevents CAF differentiation or simply TGF-β-induced fibronectin expression, the inventors performed quantitative reverse transcriptase-PCR (qPCR) to analyze other CAF markers, including α-SMA, collagen 1a1 (COL1A1), fibroblast activation protein (FAP), and tenascin C (TNC). RNA was extracted from cells treated with 120 nM digoxin±TGF-β for 24 hours. […] Additionally, the inventors observed that α-SMA mRNA expression was already high in WPMY-1 cells and not increased by addition of TGF-β, but was reduced in response to digoxin treatment.
structure (smiles),measurement,setting,value
C[C@H]1O[C@@H](O[C@H]2[C@@H](O)C[C@H](O[C@H]3[C@@H](O)C[C@H](O[C@H]4CC[C@@]5(C)[C@H](CC[C@@H]6[C@@H]5C[C@@H](O)[C@]5(C)[C@@H](C7=CC(=O)OC7)CC[C@]65O)C4)O[C@@H]3C)O[C@@H]2C)C[C@H](O)[C@@H]1O [digoxin],TGF-β-induced fibronectin expression (western blot),[1],prevents TGF-β-induced fibronectin expression in a dose dependent manner
same,TGF-β-induced SMAD promoter (luciferase) activity,SMAD promoter activity,prevents the TGF-β induction of the SMAD signaling pathway
same,"transcriptional induction of collagen 1a1, tenascin C, fibronectin, YAP, Snail (TGF-β) and TAZ (IL-8)",[2],"prevented the transcriptional induction of collagen 1a1, tenascin C, fibronectin, YAP and Snail downstream of TGF-β signaling and TAZ downstream of the fibroblast chemokine IL-8"
same,TGF-β-induced fibronectin expression in mouse fibroblasts,[3],did not have an effect on TGF-β-induced fibronectin expression
same,TGF-β-induced fibronectin expression in mouse fibroblasts,[3]; listed as Digoxin,did not prevent fibronectin induction even at high concentrations
same,"reversal of activated fibroblast phenotype (fibronectin, TAZ, smooth muscle actin)",[4],revert fibroblasts to the quiescent state
same,fibronectin staining intensity per cell (Cellomics arrayscan),[5],the levels of fibronectin are reduced
same,"activated fibroblast phenotype induced by TGF-β and FGF (fibronectin, YAP, TAZ, smooth muscle actin)","[6]; MRC-5, 10 ng/mL TGF-β and 20 ng/ml FGF, 24 hours",able to prevent the activated fibroblast phenotype
same,"activated fibroblast phenotype upon TGF-β and FGF, compared with nintedanib","[6]; MRC-5, 10 ng/mL TGF-β and 20 ng/ml FGF, 24 hours, nintedanib 200 nM",able to block the activated fibroblast phenotype better than nintedanib
same,"fibroblast activation from a combination of growth factors (TGF, FGF, IL8)","[6]; MRC-5, 10 ng/mL TGF-β, 20 ng/mL FGF, 20 ng/mL IL-8, digoxin 250 nM, pyrvinium 500 nM vs pirfenidone 500 μm, nintedanib 250 nM",able to block fibroblast activation from a combination of growth factors better than pirfenidone or nintedanib
same,"induction of fibronectin, YAP, TAZ, smooth muscle actin by TGF-β","[6]; MRC-5, 10 ng/mL TGF-β, serum-free, 24 hours, dose escalation",block the induction of activated fibroblasts
same,TGF-β induced contraction of fibroblasts,MRC-5 fibroblasts,inhibits TGF-β induced contraction of fibroblasts
same,"TGF-β-induced expression of FN1, α-SMA, COL1A1, TNC mRNA",[7],prevented TGF-β-induced expression
